Data as given in patent EP0144519A1, “2',4'-Difluoro-4-hydroxy-(1,1'-diphenyl)-3-carboxylic derivatives of N-acetylcysteine and of S-carboxymethylcysteine having anti-inflammatory and mucolytic activity, process for their preparation and related pharmaceutical compositions” (priority 1983, dated 1985).
Counter-ions that a name gives are not always drawn.

Columns and labels:
[1] = system: carrageen induced paw oedema; assay: carrageen induced paw oedema in the rat (anti-inflammatory activity); assay type: in vivo; details: administered 1h before the carrageen, 10 animals
Text: (§1) The pharmaco-toxicological properties of the compounds '1 have been studied in comparison with diflunisal and with N-acetylcysteine, in order to evaluate the pharmacological and toxicological properties of the compounds of the invention with respect to those of the starting compounds. The results relating to the compound 5 (see scheme I) are hereinafter reported, only for illustrative and not for limiting purpose.

[2] = system: phenylquinone induced writhing; assay: phenylquinone induced writhing in the mouse (analgesic activity); assay type: in vivo; details: 10 animals
Text: as §1

sacrospinalis muscle = assay: histolesivity, intramuscular injection in the sacrospinalis muscle of rabbit; assay type: in vivo; details: equimolar doses
Text: (§2) Other toxicological features of the compound 5 have been also studied, more particularly the histolesivity (intramuscular injection in the sacrospinalis muscle of rabbit) and the gastrolesivity (ulcers after oral administration in the rat).

ulcers = assay: gastrolesivity, ulcers after oral administration in the rat; assay type: in vivo; details: equimolar doses
Text: as §2

[3] = plasma levels of diflunisal after oral administration in the rat (pharmacokinetics); assay type: in vivo; details: 40 umol/kg, oral dose 0.04 mmol/kg
Text: Lastly, some pharmacokinetic properties of the compound 5 have been investigated, by measuring the plasma levels of diflunisal after oral administration of 0.04 mmol/kg p.o. in the rat, this dose being close to the therapeutical one. [table]

[4] = water solubility (observation at preparation); assay type: physicochemical
Experimental: 3.95 g of S-[2',4'-difluoro-4-hydroxy-(1,1'-diphenyl)-3-carbonyl]-N-acetyl-L-cysteine (5) are added with 2.92 g of lysine base as a 50% aqueous solution, 8 ml of water and 20 ml of acetone; the mixture is stirred until a clear solution is obtained and filtered. Under stirring the mixture is diluted up to 100 ml with acetone, cooled to -10°C for a night, filtered and dried in a stove at 50-60°C under vacuum. A white, water soluble product is obtained having melting point of 179-184°C, with a yield of 92%.

In the case of O=C(O)c1cc(-c2ccc(F)cc2F)ccc1O [Diflunisal, 2',4'-difluoro-4-hydroxy-(1,1'-diphenyl)-3-carboxylic acid], the “INIBITION % (medium value ± s.e.) anti-inflammatory activity (a)” value (from here on “INIBITION % … (a)”) ([1]; 0.040 mmol kg^-1 p.o.) is reported as 29.6 ± 5.4%, the “INIBITION % … (a)” value ([1]; 0.120 mmol kg^-1 p.o.) is reported as 50.3 ± 2.0% and the “INIBITION % … (a)” value ([1]; 0.400 mmol kg^-1 p.o.) is reported as 53.9 ± 4.7%. For the same molecule, the “INIBITION % (medium value ± s.e.) analgesic activity (b)” value (“INIBITION % … (b)” below) ([2]; 0.040 mmol kg^-1 p.o.) was 9.5 ± 6.2%, the “INIBITION % … (b)” value ([2]; 0.120 mmol kg^-1 p.o.) was 16.6 ± 15.9% and the “INIBITION % … (b)” value ([2]; 0.400 mmol kg^-1 p.o.) was 39.6 ± 9.8%. The histolesivity (sacrospinalis muscle) was “high”, the gastrolesivity (ulcers) was “high” and the Cmax [3] was 39700 ng/mL. The AUC(0-inf) ([3]; read-out: o → oo) was 345 µg·h/mL, the Tmax ([3]; read-out: tC max) was 3 h and the half-life ([3]; read-out: t½ (converted)) was 252 min.
With CC(=O)N[C@@H](CSC(=O)c1cc(-c2ccc(F)cc2F)ccc1O)C(=O)O [Example 8, S-/ 2',4'-difluoro-4-hydroxy-(1,1'-diphenyl)-3-carbonyl]-N-acetyl-L-cysteine lysine salt] the solubility in water [4] was “water soluble”.
